“Also recorded” adds a separate entry of the source. Read-outs that look alike come from different tables or passages of the source.
How the values were obtained:
[1] = system: male CF-1 mice; experiment: Tail-flick assay (acute thermal pain); type: in vivo; conditions: i.c.v. 100 μg per mouse, 15-90 min
Protocol: The Tail-Flick test comprises of acute nociception in which the tail of the test animal is thermally stimulated. The time it takes for the animal to either flick or withdraw its tail is recorded as a measure of the response to the thermal stimuli. For this test, mice were gently restrained in a cloth; the tail-flick beam was centered on the dorsal surface of the tail (about 15 mm from the end of the tail). The heat source was activated, and the latency for withdrawal of the tail was recorded. The intensity of the tail-flick beam was adjusted so that the average withdrawal time of the baseline measurement was 2 to 4 sec. For each animal, a baseline response latency was determined in two consecutive responses measured at 5 minute intervals. Animals were tested at 15, 30, 45, 60, 75, and 90 minutes after drug administration.
While hot-plate method is more sensitive at supraspinal level, the tail-flick method mostly embodies a spinal reflex response to noxious stimuli. […] The time it takes for the animal to either flick or withdraw its tail is recorded as a measure of the response to the stimuli. […]
Columbus Instruments tail-flick analgesiometer was employed for this experiment. […] The heat source was activated, and the latency for withdrawal of the tail recorded. […] For each animal, a baseline response latency was determined in two consecutive responses measured at 5 min intervals. […]

[2] = system: mice; experiment: Formalin test (persistent pain); type: in vivo, mouse
Protocol: The formalin test is another variant model for analyzing pain-relieving properties of test compounds in pain produced by inflammation or by injury to peripheral tissue. It is divergent from the acetic acid writhing assay in producing a biphasic response. These pharmacologically distinct phases are generally observed from 1 to 10 minutes, and 15 to 60 minutes post injection. While phase-I is caused by a rapid relay response in pain fibers, sensitization due to peripheral inflammation results in phase-II response in this model.
Mice were injected with 20 μl of 2% buffered formalin solution into the intraplantar region of hind paw of mice and the total time spent in licking and biting of the formalin-treated paw by the animals over the course of 30 min (phase I, acute pain behavior, 0-5 min; phase II, chronic pain behavior, 15-30 min) was recorded. Test compounds were injected 15 min prior to formalin administration. The pain response time (licking time) was recorded for every 5-min period during the 30-min recording for each mouse. The test compounds were dissolved in 50% saline in DMSO solution and delivered systemically

[3] = Distribution of tosedostat in brain and plasma (LC-MS/MS); type: in vivo, mouse; conditions: 10 mg/Kg i.p., over 4 hours
Protocol: The subjects were intraperitoneally injected with ketamine-xylazine cocktail (100 mg/kg ketamine+10 mg/kg xylazine) 2 minutes prior to the time-point being analyzed. Specifically, samples were collected at 0.25, 0.5, 1, 2, and 4 hours after the drug administration. […] Samples were immediately centrifuged at 3000×rpm for 10 minutes at 4° C. and the separated top plasma layer was transferred into a new tube. Blood samples stored at −80° C. until LC-MS/MS analysis. For brain samples, brain tissue was extracted from the animal and washed with copious volumes of ice-cold D-PBS for removal of blood from the sample. and Collect brain and wash the brain with ice-cold DPBS properly to remove blood. The sample was then gently wiped with absorbent paper, weighed, and transferred into a 15 mL tube. The brain samples were homogenized by adding 1:5 (w/v) of ice-cold D-PBS into the tube and using mechanical homogenizer on them. Homogenized brain samples were also stored at −80° C.
LC-MS/MS analysis: Frozen plasma and brain homogenate samples were thawed and rapidly quenched as detailed here. For plasma samples, 30 μL of DMSO and 60 μL of acetonitrile containing 0.1% formic acid were added to 30 μL of each unknown thawed plasma sample. For brain homogenate samples, 10 μL of DMSO and 60 μL of acetonitrile containing 0.1% formic acid were added to 30 μL of each unknown sample. […]

[4] = system: mice; experiment: Acetic acid writhing test (persistent pain); type: in vivo, mouse
Protocol: Acclimatized animals are treated systemically with a dilute solution of acetic acid inducing abdominal constrictions (writhes) or extension of hind limbs in the animal. The writhes and extensions are counted within a predetermined period of time to analyze the efficacy of the test compound. […] Percent inhibition is calculated according to the equation: % Inhibition=[(Mean number of writhes for control−Mean number of writhes for test compound)/(Mean number of writhes for control)]×100.
The mice were given vehicle or test compounds 15 min before acetic acid administration. Subsequently, all the groups of mice were injected with 1% (10 mL/kg) acetic acid solution intraperitoneally to induce writhing. The animals display characteristic movements such as extension of hind limb, abdominal constriction, and trunk twisting movement called writhing. The numbers of writhing episodes in 30 min period beginning at the time of the acetic acid administration were counted. […] APAP was dissolved in saline. Both test compounds were delivered intraperitoneally to the test animals.

[5] = system: mice; experiment: Combination therapy with morphine, isobolographic analysis in tail-flick assay; conditions: for Dose Reduction Index (DRI) Tosedostat: in combination with morphine; for ED50: Mus musculus, ip

## CC(C)C[C@@H](C(=O)N[C@H](C(=O)OC1CCCC1)c1ccccc1)[C@H](O)C(=O)NO [Tosedostat]
[1]
  analgesic effect: does not impart analgesic effect; also recorded: does not prompt a potent analgesic effect; also recorded: ineffective in furnishing an antinociceptive response
[2]; i.p.
  phase-I response: dose-dependent response
[2]; i.p., dosages as low as 1 mg/Kg
  phase-II nociceptive action of formalin: completely suppressed
[2]; same assay
  potency in comparison with APAP: significantly advantageous in potency
[3]
  presence in brain homogenate compared to plasma samples: minimal presence of tosedostat in the brain homogenate samples
[4]; i.p.
  dosage required for analgesic effect equivalent to 200 mg/Kg APAP: 1 mg/kg
[4]; i.p. 50 mg/Kg
  inhibition of writhings: > 90%
[4]; i.p., 30-minute count after acetic acid
  attenuation of writhing episodes compared to control groups: significant attenuation of writhing episodes in a dose-dependent manner
[5]; 15 min
  Dose Reduction Index (DRI) Tosedostat: 2.52
[5]; 30 min
  Dose Reduction Index (DRI) Tosedostat: 1.91
[5]; 45 min
  Dose Reduction Index (DRI) Tosedostat: 1.79
[5]; 60 min
  Dose Reduction Index (DRI) Tosedostat: 2.21
[5]; 0.25 h, read-out: Tosedostat ED50 (±SEM)
  ED50: 89 ± 109 mg/kg
[5]; 0.5 h, read-out: Tosedostat ED50 (±SEM)
  ED50: 85.8 ± 132 mg/kg
[5]; 0.75 h, read-out: Tosedostat ED50 (±SEM)
  ED50: 71.5 ± 47.6 mg/kg
[5]; 1 h, read-out: ED50, given alone
  ED50: 58.1 to 82 mg/kg
[5]; 1 h, read-out: Tosedostat ED50 (±SEM)
  ED50: 97.3 ± 33.6 mg/kg

Source: patent US10925851B2 (Regents of the University of Minnesota, priority 2018, dated 2021)
